In US10428043B2, “Green oxidation catalytic system” (TRUSTEES OF BOSTON UNIVERSITY, priority 2014, dated 2019):
Several values for one entry are separate records, joined by “and”; a condition that tells them apart may be missing. Identical values can stand only once. Like-named read-outs stand apart in the source and are kept apart here.

What was measured:
[1] = Reactivity with α-KG, O2 and 2,4-di-tert-butyl phenol (GC-FID); conditions: O2, [Fe] 9.6 μM
Method: (§1) Reactivity Studies. […] (10-20 mM).

[2] = Reactivity with α-KG, O2 and cyclooctane (GC-MS); conditions: Cyclooctane
Method: as §1

[3] = cited from earlier work
[4] = Low-temperature stopped-flow kinetics of binding of α-KG to 17; conditions: 17 + α-KG
[5] = Room temperature O2 reactivity of ferrous complexes followed by UV/vis
Method: The solution was transferred to an anaerobic UV/vis cell and sealed. An initial spectrum was obtained of the ferrous complex, and then the solution was exposed to the air. Spectra were recorded every minute for the first two minutes and then every 5-30 minutes after that for seven hours. The absorbance was monitored at 350 nm to follow formation of the oxidized complex.
This solution was then transferred to an anaerobic UV/vis cell and sealed. An initial spectrum was obtained of the ferrous complex, and then the solution was exposed to the air. Spectra were collected every minute for the first 30 minutes and then every 5-20 minutes after that for 2 hours. The absorbance was monitored at 315 nm to follow formation of the oxidized complex.

[6] = Low-temperature stopped-flow kinetics of binding of p-CH3-BF to 17; conditions: 17 + p-CH3-BF
[7] = Reactivity with α-KG, O2 and cyclohexene (GC); conditions: Cyclohexene
[8] = Reactivity with α-KG, O2 and 9,10-dihydroanthracene (GC-FID); conditions: O2, [Fe] 10.1 μM
Method: as §1
(17) with α-KG, 02, and 9,10-dihydroanthracene.

[9] = Catalytic oxidation of methanol to formaldehyde with α-KG and O2 (Nash assay); conditions: for Total TON / TON: Methanol; for TON: product Formaldehyde
[10] = Cyclic voltammetry, redox potentials; type: physicochemical
Description: All reagents and solvents used were purchased from commercial sources and used as received unless otherwise noted. Prior to use, methanol (Pharmco-Aaper) was distilled over magnesium metal, dimethyl sulfoxide (Fisher Scientific) was distilled over calcium hydride, triethylamine was distilled over sodium metal and unstabilized dichloromethane (Fisher Scientific) was distilled over calcium hydride. Ferrocene was purified by sublimation for use as a reference for electrochemical analyses. All manipulations involving ferrous complexes were carried out in an inert atmosphere glovebox (M. Braun, Stratham, N.H.) with distilled and thoroughly degassed solvents. UV/Vis spectra were collected using a Hewlett Packard Spectrometer (8453). IR spectra were collected using a Thermo Nicolet AVATAR 330-FT-IR. Cyclic voltammetry experiments were performed using a Princeton Applied Research model 273 potentiostat with a glassy carbon working electrode, a silver wire reference electrode and a platinum wire counter electrode. Electron Paramagnetic Resonance (EPR) spectra were collected on a Bruker ESP-300E spectrometer operating at 9.460 GHz. NMR spectra were recorded at 25° C. using a Varian spectrometer operating at 400 MHz with all chemical shifts referenced to SiMe4. Iron concentrations were determined using a Varian AA240Z Atomic Absorption Spectrometer.
Cyclic voltammetry was performed inside an inert atmosphere (N2) box, with degassed DMSO as the solvent and tetra-N-butylammonium hexafluorophosphate as the supporting electrolyte (0.2M). The ferrocenium/ferrocene couple was used as an internal reference; reduction potential values were corrected by assigning the ferrocenium/ferrocene couple to 0.64 V versus NHE (Zanello, P. Inorganic Electrochemistry; The Royal Society of Chemistry: Cambridge, 2003). Chloride titration experiments were performed by collecting CV data after the addition of one and two 50 μL aliquots of 204 mM [NEt4][Cl] to 3.0 mL of 3.4 mM [Fe^II(N2O1py)(Cl)2]^− (concentration determined using flame atomic absorption spectroscopy) and correcting the potential with reference to the ferrocenium/ferrocene couple.
It should be noted that these redox potentials were determined in the absence of excess halide, and further CV studies will be performed in the presence of excess halide for all derivatives of the N2O1py system.

[11] = vs. NHE, quasi-reversible; Thesis of Tarves 2012; cited from earlier work
[12] = Low-temperature stopped-flow kinetics of adduct complexes with dioxygen; conditions: −85° C.
Method: Stopped-flow Spectroscopy and Data analysis.
Kinetic studies of [Fe^II(N2O1)(α-KG)(CH3OH)]^− and [Fe^II(N2O1)(p-X-BF)(CH3OH)]^− adduct complexes with dioxygen. Low-temperature stopped flow studies of this reaction were performed.
Order dependence analysis.
The kinetic model was built by starting from simple two- and three-exponential processes.
Stoichiometry of the equations for the proposed model in FIG. 29: […]

[13] = calculated from redox potentials for the one-electron transfer between iron and dioxygen
[14] = [24] 1.0 mM, O2 5 mM, benzoate 3.1 mM
[15] = complex 0.94-1.1 mM, O2 5 mM, methanol

Which results are given for CN(C)CCN(C)CC(=O)[O-].[Cl-].[Cl-].[Fe+2].[Na+] [compound 17, [Fe^II(N2O1)Cl2][Na]]?
Total TON [1]: 619; TON ([1]; product 3,3′-5,5′-terta-t-butyl-2,2′-dihydroxybiphenyl): 619; Total TON ([2]; Air, [Fe] 1.1 μM): 317; TON ([2]; Air, [Fe] 1.1 μM, product Cyclooctanol): 189; TON ([2]; Air, [Fe] 1.1 μM, product Cyclooctanone): 64; Total TON ([2]; O2, [Fe] 1.1 μM): 305; TON ([2]; O2, [Fe] 1.1 μM, product Cyclooctanol): 182; TON ([2]; O2, [Fe] 1.1 μM, product Cyclooctanone): 62; Total TON ([2]; O2, [Fe] 9.7 μM): 40; TON ([2]; O2, [Fe] 9.7 μM, product Cyclooctanol): 24; TON ([2]; O2, [Fe] 9.7 μM, product Cyclooctanone): 7.8; solubility ([3]; DMF and DMSO): only slightly soluble; solubility ([3]; other common polar and nonpolar aprotic solvents, including CH3CN, CH2Cl2, THF, Et2O, toluene and ethyl acetate): insoluble; solubility ([3]; protic solvents): soluble; k15 ([4]; methanol, −85° C.): 9.6 M⁻¹ s⁻¹ and 10 ± 0.2 M⁻¹ s⁻¹; k16 ([4]; methanol, −85° C.): 1.7 s⁻¹ and 1.7 ± 0.5 s⁻¹; k17 ([4]; methanol, −85° C.): 0.53 s⁻¹ and 0.5 ± 0.1 s⁻¹; ΔH^‡ of k15 ([4]; −85 to −70° C.): 8.6 ± 0.48 kcal/mol; ΔH^‡ of k16 ([4]; −85 to −70° C.): 12 ± 1.2 kcal/mol; ΔH^‡ of k17 ([4]; −85 to −70° C.): 11.2 ± 1.4 kcal/mol; ΔS^‡ of k16 ([4]; −85 to −70° C.): 31.3±23 J mol^−1 K^−1 and 31 ± 23 J mol^−1 K^−1; ΔS^‡ of k17 ([4]; −85 to −70° C.): 3 ± 1 J mol^−1 K^−1; time for formation of the diferric oxo-bridged product on reaction with O2 ([5]; methanol): ~6 h; k15 ([6]; methanol, −85° C.): 45.3 M⁻¹ s⁻¹ and 45 ± 5 M⁻¹ s⁻¹; k16 ([6]; methanol, −85° C.): 12 ± 1 s⁻¹; k17 ([6]; methanol, −85° C.): 1.2 ± 0.1 s⁻¹; ΔH^‡ of k15 ([6]; −85 to −70° C.): 8.37 ± 0.48 kcal/mol; ΔH^‡ of k16 ([6]; −85 to −70° C.): 10 ± 2.2 kcal/mol; ΔH^‡ of k17 ([6]; −85 to −70° C.): 9.08 ± 0.24 kcal/mol; ΔS^‡ of k16 ([6]; −85 to −70° C.): 1.5 ± 0.9 J mol^−1 K^−1; ΔS^‡ of k17 ([6]; −85 to −70° C.): 36.9±15 J mol^−1 K^−1 and 37 ± 15 J mol^−1 K^−1; Total TON ([7]; O2, [Fe] 9.6 μM): 520; Total TON ([7]; O2, [Fe] 9.6 μM + TEMPO): 414; TON ([7]; O2, [Fe] 9.6 μM + TEMPO (6 × 10^4 excess), product Cyclohexene oxide): 53; TON ([7]; O2, [Fe] 9.6 μM + TEMPO, product 2-Cyclohexen-1-ol): 240; TON ([7]; O2, [Fe] 9.6 μM + TEMPO, product 2-Cyclohexen-1-one): 60; TON ([7]; O2, [Fe] 9.6 μM, product 2-Cyclohexen-1-ol): 249; TON ([7]; O2, [Fe] 9.6 μM, product 2-Cyclohexen-1-one): 70; TON ([7]; O2, [Fe] 9.6 μM, product Cyclohexene oxide): 132; Total TON [8]: 128; TON ([8]; product Anthracene): 54; TON ([8]; product Anthraquinone): 26; TON ([8]; product Anthrone): 21; Total TON ([9]; O2, [Fe] 1.0 μM): 285; TON ([9]; O2, [Fe] 1.0 μM): 285; Total TON ([9]; O2, [Fe] 6.2 μM): 54; TON ([9]; O2, [Fe] 6.2 μM): 54; Total TON ([9]; O2, [Fe] 8.0 μM): 36; TON ([9]; O2, [Fe] 8.0 μM): 36; Total TON ([9]; O2, [Fe] 12.5 μM): 22; TON ([9]; O2, [Fe] 12.5 μM): 22; Total TON ([9]; O2, [Fe] 100 μM): 3.5; TON ([9]; O2, [Fe] 100 μM): 3.5; Total TON ([9]; O2, [Fe] 200 μM): 2.1; TON ([9]; O2, [Fe] 200 μM): 2.1; Total TON ([9]; O2, [Fe] 300 μM): 1.3; TON ([9]; O2, [Fe] 300 μM): 1.3; Total TON ([9]; O2, [Fe] 500 μM): 0.82; TON ([9]; O2, [Fe] 500 μM): 0.82; Total TON ([9]; O2, [Fe] 2500 μM): 0.46; TON ([9]; O2, [Fe] 2500 μM): 0.46; Total TON ([9]; O2, [Fe] 5000 μM): 0.39; TON ([9]; O2, [Fe] 5000 μM): 0.39; E1/2 ([10]; DMSO, glassy carbon working electrode, absence of excess halide): 159 mV; Keq [10, 13]: 1.1 × 10^−8; ΔG° [10, 13]: 45 kJ; E1/2 ([10]; no added halide, in mV): +159

What does the source list for CN(C)CCN(C)CC(=O)[O-].CO.O=C([O-])C(=O)c1ccccc1.[Fe+2] [compound 24, [Fe^II(N2O1)(p-H-BF)]]?
E1/2 [11]: 60 mV; k′1 ([12]; [24] 0.47 mM, O2 5 mM): 8.5 ± 0.2 s⁻¹; k′2 ([12]; [24] 0.47 mM, O2 5 mM): 170 ± 8 M⁻¹ s⁻¹; k′2obs ([12]; [24] 0.47 mM, O2 5 mM): 0.9 ± 0.04 s⁻¹; k′3 ([12]; [24] 0.47 mM, O2 5 mM): 21 ± 0.06 s⁻¹; k′4 ([12]; [24] 0.47 mM, O2 5 mM): 0.2 ± 0.01 s⁻¹; k′2obs ([12]; [24] 0.94 mM, O2 5 mM): 0.13 ± 0.02 s⁻¹; k′1 [12, 14]: 0.04 ± 0.01 s⁻¹; k′2 [12, 14]: 2900 ± 500 M⁻¹ s⁻¹; k′3 [12, 14]: 0.25 ± 0.05 s⁻¹; k′4obs [12, 14]: 1.1 ± 0.2 s⁻¹; k′1 ([12]; [24] 1.34 mM, O2 2.5 mM): 7 ± 1.2 s⁻¹; k′2obs ([12]; [24] 1.34 mM, O2 2.5 mM): 0.2 ± 0.1 s⁻¹; k′3 ([12]; [24] 1.34 mM, O2 2.5 mM): 14 ± 6 s⁻¹; k′4 ([12]; [24] 1.34 mM, O2 2.5 mM): 0.2 ± 0.03 s⁻¹; k′1 ([12]; [24] 1.34 mM, O2 3.5 mM): 9 ± 1.1 s⁻¹; k′2obs ([12]; [24] 1.34 mM, O2 3.5 mM): 0.5 ± 0.2 s⁻¹; k′3 ([12]; [24] 1.34 mM, O2 3.5 mM): 16 ± 4 s⁻¹; k′4 ([12]; [24] 1.34 mM, O2 3.5 mM): 0.3 ± 0.09 s⁻¹; k′1 ([12]; [24] 1.34 mM, O2 5 mM): 6.1 ± 0.9 s⁻¹ and 8 ± 0.9 s⁻¹; k′2 ([12]; [24] 1.34 mM, O2 5 mM): 150 ± 5 M⁻¹ s⁻¹; k′3 ([12]; [24] 1.34 mM, O2 5 mM): 20 ± 1.1 s⁻¹ and 21 ± 5 s⁻¹; k′1 [12, 15]: 7.8 ± 1.0 s⁻¹; k′3 [12, 15]: 20 ± 0.9 s⁻¹; k′4 (k′4obs) [12, 15]: 0.4 ± 0.03 s⁻¹; rate of room temperature reactivity with O2 (time) [5]: ~200 min; TON predicted from the line of best fit in FIG. 2 for the α-KG adduct complex ([9]; iron complex 0.47 mM): 0.9; TON predicted from the line of best fit in FIG. 2 for the α-KG adduct complex ([9]; iron complex 0.94 mM): 0.6; TON predicted from the line of best fit in FIG. 2 for the α-KG adduct complex ([9]; iron complex 1.34 mM): 0.3
